These results are taken from patent US10118954B2, “Apelin analogues” (University of Ulster, priority 2014, dated 2018).

Where no end group is shown, it is not given here.

A short description of the data set: Degradation of apelin peptides by plasma from fasted normal NIH Swiss mice (rp-HPLC, MALDI-TOF MS). The format is in vitro ADME. Here is the method: Degradation of Apelin Peptides by Plasma from Fasted Normal NIH Swiss Mice […] The enzymatic reaction was stopped by adding 50 μl of 10% TFA (0.1% v/v; Sigma-Aldrich Ltd, (Poole, Dorset, UK) and frozen at -20° C. until separation. The terminated reaction products were then applied to an analytical Vydac C-8 column (4.6×150 mm; Phenomenex, Macclesfield, Cheshire, UK) for rp-HPLC analysis. The absorbance was monitored at 214 nm using a […] UV 2000 detector (Thermoquest Limited, Manchester, UK) and the traces were recorded by Thermo Electron ChromQuest data collection software (version 4). HPLC peak fractions were collected manually and subjected to MALDI-TOF mass spectrometry for peptide identification. Degradation profile of various apelin-13 related analogues: plasma incubations (4 h) were separated on a Vydac C-8 analytical HPLC column and all peaks were collected prior to analysis by MALDI-TOF mass spectrometry. Degradation fragments, actual molecular weights (Mr) and retention times (RT) are shown. Theoretical molecular weights of each fragment are shown in brackets. […] Degradation fragments, theoretical molecular weights (Mr) and retention times (RT) are shown. Theoretical molecular weights of each fragment are shown in brackets.

The mark [1] stands for this setting: NIH Swiss, mouse, plasma, pH 7.4.

Take `CSCC[C@H](NC(=O)[C@@H]1CCCN1C(=O)CNC(=O)[C@H](CCCCN)NC(=O)[C@H](Cc1c[nH]cn1)NC(=O)[C@H](CO)NC(=O)[C@H](CC(C)C)NC(=O)[C@H](CCCNC(=N)N)NC(=O)[C@@H]1CCCN1C(=O)[C@@H](N)CCCNC(=N)N)C(=O)N1CCC[C@H]1C(=O)N[C@@H](Cc1ccccc1)C(=O)O` [Apelin-12, reference compound]: the “Rank order of stability” value is given as 13. Also, under setting [1], the share remaining at 4 h, 263 µg/mL is 39.5 ± 1.9%. For the same compound, for the setting “mouse, plasma”, the half-life is 3.4 h.
Turning to “LVQPRGSRNGPGPWQGGRRKFRRQRPRLSHKGPMPF [Apelin-36, reference compound]”, the “Rank order of stability” value stood at 15. Also, under setting [1], the half-life at 263 µg/mL is 1.3 h and the amount remaining at 4 h, 263 µg/mL amounted to 5.5 ± 0.6%.
